Assay results from patent US8445510B2, “Fused bicyclic kinase inhibitors” (OSI Pharmaceuticals, LLC, priority 2011, dated 2013).

Tests used:
Type in all cases: cell-based
Aurora B = biological target: T1, Aurora B (Homo sapiens, UniProt Q96GD4); assay: Aurora B cell mechanistic assay (HT-29), phospho-Histone H3 (Ser10) ELISA; details: HT-29 cell line; inhibition of phospho-Histone H3 (Ser10); at least duplicate experiments (italicized if single experiment); read-out: Aurora B mech IC50
T1 construct: HT-29 cells grown in complete growth media
T1 sequence (Q96GD4 whole entry): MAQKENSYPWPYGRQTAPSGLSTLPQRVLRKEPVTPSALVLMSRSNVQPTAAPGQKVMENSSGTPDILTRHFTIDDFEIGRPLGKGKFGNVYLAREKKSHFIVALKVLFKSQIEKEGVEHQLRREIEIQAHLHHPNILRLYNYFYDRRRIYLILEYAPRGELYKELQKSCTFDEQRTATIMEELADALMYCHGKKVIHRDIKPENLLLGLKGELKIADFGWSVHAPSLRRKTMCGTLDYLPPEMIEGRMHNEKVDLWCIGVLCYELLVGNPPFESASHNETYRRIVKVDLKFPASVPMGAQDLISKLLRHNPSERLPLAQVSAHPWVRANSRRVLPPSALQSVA
Outline: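 HT-29 cells treated 1 h at 37 °C with serially diluted compound, then 100 nM Calyculin A added for 30 min. Lysates assayed by phospho-Histone H3 (Ser10) ELISA at 450 nm; normalized to DMSO (100%) and a reference Aurora B inhibitor (full inhibition); IC50 by four-parameter fit.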

c-MET = c-MET (Homo sapiens, UniProt P08581); assay: MET cell mechanistic assay (MKN45), phosphorylated MET ELISA; details: MKN45 cell line; inhibition of phosphorylated MET; 4 hours incubation; at least duplicate experiments; read-out: MET mech IC50
Chain of c-MET (P08581 25-1390): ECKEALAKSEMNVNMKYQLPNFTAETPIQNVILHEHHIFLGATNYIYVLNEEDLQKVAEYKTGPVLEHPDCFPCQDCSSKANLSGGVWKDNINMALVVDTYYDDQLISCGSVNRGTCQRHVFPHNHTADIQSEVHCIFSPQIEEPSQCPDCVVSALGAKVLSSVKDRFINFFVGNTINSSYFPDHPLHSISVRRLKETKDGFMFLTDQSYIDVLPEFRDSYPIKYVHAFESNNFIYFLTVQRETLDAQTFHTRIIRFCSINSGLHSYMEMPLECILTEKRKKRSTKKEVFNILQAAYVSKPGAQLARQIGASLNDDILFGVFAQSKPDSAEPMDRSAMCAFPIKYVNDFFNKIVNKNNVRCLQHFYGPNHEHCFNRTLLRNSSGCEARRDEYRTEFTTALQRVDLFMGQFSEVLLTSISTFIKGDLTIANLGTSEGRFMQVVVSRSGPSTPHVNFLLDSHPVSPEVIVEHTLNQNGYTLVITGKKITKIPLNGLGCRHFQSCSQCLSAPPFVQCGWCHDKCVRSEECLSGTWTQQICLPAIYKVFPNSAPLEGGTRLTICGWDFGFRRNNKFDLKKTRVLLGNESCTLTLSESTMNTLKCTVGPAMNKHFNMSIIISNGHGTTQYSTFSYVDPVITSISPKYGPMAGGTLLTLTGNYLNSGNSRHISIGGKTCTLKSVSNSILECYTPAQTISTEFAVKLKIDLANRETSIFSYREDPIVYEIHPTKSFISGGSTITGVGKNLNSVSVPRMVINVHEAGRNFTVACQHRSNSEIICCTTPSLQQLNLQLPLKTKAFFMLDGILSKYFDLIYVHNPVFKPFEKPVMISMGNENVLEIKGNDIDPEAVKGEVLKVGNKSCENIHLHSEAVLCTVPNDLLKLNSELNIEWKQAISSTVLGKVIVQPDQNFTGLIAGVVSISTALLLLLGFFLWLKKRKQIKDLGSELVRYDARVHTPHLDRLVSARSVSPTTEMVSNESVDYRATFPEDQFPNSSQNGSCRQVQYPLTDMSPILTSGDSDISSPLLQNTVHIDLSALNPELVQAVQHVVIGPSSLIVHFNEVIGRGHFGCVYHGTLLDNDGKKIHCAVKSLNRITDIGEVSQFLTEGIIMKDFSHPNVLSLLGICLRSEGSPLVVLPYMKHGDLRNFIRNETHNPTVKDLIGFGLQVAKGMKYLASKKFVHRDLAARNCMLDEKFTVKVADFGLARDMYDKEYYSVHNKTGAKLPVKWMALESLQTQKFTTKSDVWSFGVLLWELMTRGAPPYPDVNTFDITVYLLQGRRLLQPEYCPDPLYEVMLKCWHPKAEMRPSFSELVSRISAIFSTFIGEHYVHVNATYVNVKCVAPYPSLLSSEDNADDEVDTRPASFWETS
Protocol: The cellular activity of the compounds of the present invention against c-MET may be determined by the following procedure. MKN45 cells were plated in Falcon 3072 96-well plates in growth media (RPMI, 10% FBS, 1% L-glutamine) at a density of 5000 cells/well and incubated at 37° C., 5% CO2 overnight. The following day, one-tenth volume of a 10× concentration of compounds was added to the wells in a 6-point dilution series. The dilutions series was composed of an initial 1:5 dilution in DMSO, followed by a 1:10 dilution in growth media, for a final DMSO concentration on cells of 0.5%. Control wells were treated with 0.5% DMSO. The typical range of dilution was 10 μM to 3 nM. Once compound was added to the cells, plates were incubated for 4 hours at 37° C., 5% CO2. Plates were then washed in PBS, and lysed in triton-based lysis buffer. Lysates were transferred to a precoated capture plate made by Biosource (Cat # KHO0281). The phosphorylated MET levels were measured by incubating with a rabbit polyclonal antibody against phosphorylated MET ([pYpYpY1230/1234/1235]) followed by an anti-rabbit antibody conjugated to HRP. Signal was measured on a Wallac Victor plate reader at 450 nm. The DMSO signal of the control wells was defined as 100% and the percent of inhibition of phosphorylated MET was expressed as percent of control. IC50 values were determined from the percent of control data using a standard four-parameter model.
The IC50 values of exemplary compounds of the present invention determined in a MET cell mechanistic assay using the MKN45 cell line according to the procedures described herein in at least duplicate experiments are abbreviated as follows and are shown in Table 1: A, IC50≦0.05 μM; B, 0.05 μM<IC50≦0.2 μM; C, 0.2 μM<IC50≦1 μM; D, IC50>1 μM; ND, not determined. The Example # of Table 1 corresponds to the compound example number as illustrated in the Examples section.
Treatment of this cell line with a selective c-MET inhibitor led to induction of apoptosis and inhibition of proliferation, whereas non-MET-amplified cell lines were not affected [Smolen et al., Proc. Natl. Acad. Sci. USA, 103(7):2316-2321 (2006)]. This cell line is thus “driven” by c-MET, and antiproliferative effects correlate very well with the inhibition of c-MET phosphorylation so that the cell proliferation IC50, values can be used as surrogate for the c-MET cell mechanistic IC50, values. Under the assay conditions described herein, the IC50 values correlate nearly 1:1.

MKN45 cells = assay: MKN45 cell proliferation assay (CellTiter-Glo); details: Homo sapiens, MKN-45, 72 h; MKN45 cell line; 3 days incubation; at least duplicate experiments; read-out: Prolif. IC50

Structure (SMILES) | IC50 (Aurora B) [nM] | IC50 (c-MET) [nM] | IC50 (MKN45 cells) [nM]
COc1ccc(F)c(Cl)c1[C@@H](C)c1c[nH]c2ncc(-c3cnn([C@H]4CC[C@H](O)CC4)c3C)cc12 [Example 27, trans-4-(4-{3-[(1S)-1-(2-Chloro-3-fluoro-6-methoxyphenyl)ethyl]-1H-pyrrolo[2,3-b]pyridin-5-yl}-5-methyl-1H-pyrazol-1-yl)cyclohexanol] | > 1000 | ≤ 50 | ≤ 50
CCOc1ccc(F)c(Cl)c1[C@@H](C)c1c[nH]c2ncc(-c3cnn([C@H]4CC[C@H](O)CC4)c3C)cc12 [Example 103, trans-4-(4-{3-[(1S)-1-(2-Chloro-6-ethoxy-3-fluorophenyl)ethyl]-1H-pyrrolo[2,3-b]pyridin-5-yl}-5-methyl-1H-pyrazol-1-yl)cyclohexanol] | > 1000 | ≤ 50 | ≤ 50
CC(=O)N1CCC(n2ncc(-c3cnc4[nH]cc([C@H](C)c5c(OC(F)F)ccc(F)c5Cl)c4c3)c2C)CC1 [Example 97, 1-{4-[4-(3-{(1S)-1-[2-Chloro-6-(difluoromethoxy)-3-fluorophenyl]ethyl}-1H-pyrrolo[2,3-b]pyridin-5-yl)-5-methyl-1H-pyrazol-1-yl]piperidin-1-yl}ethanone] | – | ≤ 50 | ≤ 50
Cc1c(-c2cnc3[nH]cc([C@H](CF)c4c(OC(F)F)ccc(F)c4Cl)c3c2)cnn1[C@H]1CC[C@H](O)CC1 [Example 124, trans-4-[4-(3-{(1S)-1-[2-chloro-6-(difluoromethoxy)-3-fluorophenyl]-2-fluoroethyl}-1H-pyrrolo[2,3-b]pyridin-5-yl)-5-methyl-1H-pyrazol-1-yl]cyclohexanol] | – | ≤ 50 | ≤ 50

The next lines start with the values.

IC50 (Aurora B) [nM] | IC50 (c-MET) [nM] | IC50 (MKN45 cells) [nM] | Structure (SMILES)
200 to 1000 | ≤ 50 | ≤ 50 | Cc1c(-c2cnc3[nH]cc([C@H](C)c4c(OC(F)F)ccc(F)c4Cl)c3c2)cnn1[C@H]1CC[C@H](O)CC1 [Example 74, trans-4-[4-(3-{(1S)-1-[2-Chloro-6-(difluoromethoxy)-3-fluorophenyl]ethyl}-1H-pyrrolo[2,3-b]pyridin-5-yl)-5-methyl-1H-pyrazol-1-yl]cyclohexanol]
– | ≤ 50 | ≤ 50 | C[C@H](c1c(OC(F)F)ccc(F)c1Cl)c1c[nH]c2ncc(-c3cnc([C@H]4CC[C@H](O)CC4)n3C)cc12 [Example 126, trans-4-[5-(3-{(1S)-1-[2-Chloro-6-(difluoromethoxy)-3-fluorophenyl]ethyl}-1H-pyrrolo[2,3-b]pyridin-5-yl)-1-methyl-1H-imidazol-2-yl]cyclohexanol]
